In the supplement of paper PMC5844555:

How the values were obtained:
Assay in all cases: 3' UTR reporter interaction score (median-centred robust z-score of log2 firefly/Renilla activity); higher = less repression of the 3' UTR reporter
Details in all cases: HEK293T; 48 h
BRCA2 = system: BRCA2
Method in brief: (§1)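 Firefly and Renilla luciferase activities were read 48 h post-transfection in HEK293T cells (10,000/well, 96-well plates). The cells had received 100 ng firefly luc2P reporter bearing the gene's 3' UTR, 20 ng Renilla pRL-TK control and 2.5 pmol miRNA mimic via DharmaFECT Duo. The interaction score, where more negative means interaction, is a per-plate robust z-score (median, median absolute deviation) of the log firefly/Renilla ratio, median-centred per miRNA and averaged over at least two independent screens.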

EZH2 = system: EZH2
Method in brief: as §1

FBXW7 = system: FBXW7
Method in brief: as §1

HRAS = system: HRAS
Method in brief: as §1

MYB = system: MYB
Method in brief: as §1

MYCN = system: MYCN
Method in brief: as §1

MYC = system: MYC
Method in brief: as §1

MYT1L = system: MYT1L
Method in brief: as §1

NOTCH1 = system: NOTCH1
Method in brief: as §1

PHF6 = system: PHF6
Method in brief: as §1

PHOX2B = system: PHOX2B
Method in brief: as §1

RB1 = system: RB1
Method in brief: as §1

TP53 = system: TP53
Method in brief: as §1

ZEB2 = system: ZEB2
Method in brief: as §1

Sequence	3' UTR reporter interaction score (BRCA2)	3' UTR reporter interaction score (EZH2)	3' UTR reporter interaction score (FBXW7)	3' UTR reporter interaction score (HRAS)	3' UTR reporter interaction score (MYB)	3' UTR reporter interaction score (MYCN)	3' UTR reporter interaction score (MYC)	3' UTR reporter interaction score (MYT1L)	3' UTR reporter interaction score (NOTCH1)	3' UTR reporter interaction score (PHF6)	3' UTR reporter interaction score (PHOX2B)	3' UTR reporter interaction score (RB1)	3' UTR reporter interaction score (TP53)	3' UTR reporter interaction score (ZEB2)
UGCUGACUCCUAGUCCAGGGC	-3.34	0.906	0.322	-1.77	0.123	0.0884	0.54	0.333	-0.364	1.06	-0.537	2.05	0.366	-1.99
UGCUUCCUUUCAGAGGGU	-0.366	0.85	0.46	-0.697	1.13	0.0627	0.327	0.521	0.215	-0.232	-0.331	-0.583	-1.13	-0.357
UGGAAGACUAGUGAUUUUGUUG	-0.32	0.509	-0.892	0.856	0.454	0.44	-0.317	-1.31	-0.0478	0.207	0.182	0.176	-1.48	-0.874
UGGAAUGUAAAGAAGUAUGUA	0.327	-0.314	-2.71	1.1	0.679	-0.505	0.479	-0.17	-0.912	0.925	0.106	0.684	-1.46	0.551
UGGAAUGUAAGGAAGUGUGUGG	-0.366	0.341	-0.356	0.0317	-0.696	-2.18	0.26	0.351	-0.967	2.43	0.446	1.33	-1.12	2.54
UGGACGGAGAACUGAUAAGGGU	0.362	-0.0404	0.0713	-0.151	0.576	-0.133	-0.199	0.408	-0.401	0.399	-1.18	-0.376	0.461	0.823
UGGAGAGAAAGGCAGUUC	-0.859	-0.838	-1.52	-0.0201	0.823	0.412	0.053	0.463	-0.015	-0.104	-0.292	-0.051	-1.31	1.17
UGGAGGAGAAGGAAGGUGAUG	-2.61	-2.61	-0.125	-0.351	1.88	0.481	-2.42	2.74	-0.968	-0.248	2.06	1.82	-0.557	3.77
UGGCAGUGUAUUGUUAGCUGGU	0.888	-0.805	0.551	1.02	-4.53	-4.71	-2.6	-0.141	-4.47	-3.24	-0.186	-0.641	0.314	0.089
UGGCAGUGUCUUAGCUGGUUGUU	0.486	0.955	-0.0417	1.33	-2.9	-3.64	-0.668	1.45	-3.59	-0.889	-0.535	-0.641	1.68	0.283
UGGCUCAGUUCAGCAGGAACAG	1.1	-0.274	-0.156	-1.16	0.0413	0.921	-2.14	0.53	-1.7	-0.0264	0.0378	0.0253	0.345	0.984
UGGGCGUAUCUGUAUGCUA	-0.638	-1.3	0.752	-0.235	0.397	0.906	-0.549	0.105	-2.02	1.09	2.15	-0.659	-0.0916	2.53
UGGUAGACUAUGGAACGUA	-0.722	-0.991	0.552	-0.461	0.96	0.966	-0.304	0.0286	0.639	-0.619	-0.373	1.85	-0.283	0.356
UGGUCUAGGAUUGUUGGAGGAG	0.659	1.07	-0.0822	1.1	0.332	0.689	0.131	-1.45	-3.72	-1.9	-0.574	-0.907	0.772	-1.89
UGGUGCGGAGAGGGCCCACAGUG	-0.582	-0.738	0.508	-0.688	-0.475	0.131	-0.919	1.6	0.612	0.575	0.217	0.451	-0.894	0.607
UGGUGGGCCGCAGAACAUGUGC	-0.495	-0.375	1.65	-0.926	-0.29	0.848	0.0166	1.92	-1.38	-0.487	0.685	-1.35	0.539	0.648
UGGUUCUAGACUUGCCAACUA	-1.9	0.495	0.0613	0.292	0.383	0.807	0.238	-0.905	-0.954	0.0797	-0.729	0.0711	-0.646	1.08
